Columns and labels:
Type in all cases: physicochemical
[1] = Exposure to elevated relative humidity, form checked by XRPD; conditions: 93% relative humidity, four days, ambient temperature
Procedure: XRPD patterns were obtained with a PANalytical X′Pert PRO MPD diffractometer using an incident beam of Cu radiation (1.54059 angstroms) produced using an Optix long, fine-focus source. The diffractometer was configured using the symmetric Bragg-Brentano geometry. Prior to analysis, a silicon sample (NIST SRM 640e) was analyzed to verify the observed position of the Si 111 peak was consistent with the NIST-certified position. A specimen of the sample was prepared as a thin, circular layer centered on a silicon zero-background substrate. Antiscatter slits (SS) were used to minimize the background generated by air. Soller slits for the incident and diffracted beams were used to minimize broadening fro axial divergence. Diffraction patterns were collected using a scanning position-sensitive detector located 240 mm from the sample.

[2] = Dynamic vapor sorption/desorption (DVS) isotherm
Procedure: Dynamic Vapor Sorption/Desorption (DVS)
Dynamic Vapor Sorption/Desorption (DVS) data was collected on a VTI SGA-100 Vapor Sorption Analyzer, using NaCl and PVP as calibration standards. Samples were not dried prior to analysis. Sorption and desorption data were collected over a range from 5% to 95% relative humidity (RH) at 10% RH increments under a nitrogen purge. The equilibrium criterion used for analysis was less than 0.01000% weight change in 5 minutes with a maximum equilibration time of 3 hours. Data were not corrected for the initial moisture content of the samples.

[3] = Thermogravimetric analysis (TGA); conditions: up to 200° C.
Procedure: Thermal Gravimetric Analysis
Thermal Gravimetric Analysis (TGA) was performed using a TA Instruments Discovery thermographic analyzer, with temperature calibration being performed using nickel and Alumel™. Each sample was placed in a pan, hermetically sealed, the lid pierced, and then inserted into the thermal gravimetric furnace which was heated under nitrogen.

For `C=CC(=O)N1CCN(CCCn2c(=O)c(-c3c(Cl)c(OC)cc(OC)c3Cl)cc3cnc(NC)nc32)CC1` [Form 1, 6-(2,6-dichloro-3,5-dimethoxyphenyl)-2-(methylamino)-8-[3-[4-(prop-2-enoyl)piperazin-1-yl]propyl]-7H,8H-pyrido[2,3-d]pyrimidin-7-one], the “change in form observable by XRPD (physical stability at elevated humidity)” value [1] was “did not result in any changes in form observable by XRPD”, the “phase change after DVS testing, by XRPD analysis” value ([2]; sample evaluated after exposure to humidity in the DVS testing) was “a phase change did not occur” and the “hygroscopicity (DVS: weight gain in each sorption cycle, hysteresis upon desorption)” value ([2]; sorption/desorption 5% to 95% RH) was “not hygroscopic”. The “weight percent change (DVS isotherm)” value ([2]; up to a percent relative humidity of about 95% (94.79%)) was at most 0.31 wt % and the “weight loss (TGA)” value [3] was at most 0.20%.

From patent US10538518B2, “Processes for preparing an FGFR inhibitor” (Principia Biopharma, Inc., priority 2015, dated 2020)
